Results taken from paper PMC5748531, “Antimycobacterial Activities of N-Substituted-Glycinyl 1H-1,2,3-Triazolyl Oxazolidinones and Analytical Method Development and Validation for a Representative Compound” (Scientia Pharmaceutica, 2017).
≈ marks a conversion by molar mass, not a printed value.

Key:
Test in all cases: microbe, parasite or virus in culture
Type in all cases: cell-based, Mycobacterium tuberculosis
[1] = system: isoniazid (INH)-resistant Mtb (SRI 1369); conditions: for MIC: Mycobacterium tuberculosis, 168 h, read-out: MIC INH-R, broth microdilution, 7 days at 37 °C
[2] = system: rifampin (RMP)-resistant Mtb (SRI 1367); conditions: for MIC: Mycobacterium tuberculosis, 168 h, read-out: MIC RMP-R, broth microdilution, 7 days at 37 °C
[3] = system: ofloxacin (OFX)-resistant Mtb (SRI 4000); conditions: for MIC: Mycobacterium tuberculosis, 168 h, read-out: MIC OFX-R, broth microdilution, 7 days at 37 °C; for MIC OFX-R: broth microdilution, 7 days at 37 °C
[4] = broth microdilution, 7 days at 37 °C

SMILES: Cc1cn(CC2CN(c3ccc(N4CCN(C(=O)CNC(=O)c5cc([N+](=O)[O-])cc([N+](=O)[O-])c5)CC4)c(F)c3)C(=O)O2)nn1 (stereo not drawn) [PH-181]
- MIC [1]: 0.85 to 1.64 µM (≈ 0.52 to 1 µg/mL)
- MIC [2]: 0.82 µM (≈ 0.501 µg/mL)
- MIC [3]: 0.82 µM (≈ 0.501 µg/mL)

SMILES: Cc1cn(CC2CN(c3ccc(N4CCN(C(=O)CNC(=O)C(Cl)Cl)CC4)c(F)c3)C(=O)O2)nn1 (stereo not drawn) [PH-182]
- MIC [1]: 0.95 µM (≈ 0.502 µg/mL)
- MIC [2]: 0.95 µM (≈ 0.502 µg/mL)
- MIC [3]: 0.47 µM (≈ 0.248 µg/mL)

SMILES: CC(=O)NCC(=O)N1CCN(c2ccc(N3CC(Cn4ccnn4)OC3=O)cc2F)CC1 (stereo not drawn) [PH-165]
- MIC [1]: 4.5 µM (≈ 2 µg/mL)
- MIC [2]: 6.7 µM (≈ 2.98 µg/mL)
- MIC [3]: 3.4 µM (≈ 1.51 µg/mL)

SMILES: O=C(NCC(=O)N1CCN(c2ccc(N3CC(Cn4ccnn4)OC3=O)cc2F)CC1)c1cccnc1 (stereo not drawn) [PH-195]
- MIC [1]: 2 µM (≈ 1.02 µg/mL)
- MIC [2]: 0.98 µM (≈ 0.498 µg/mL)
- MIC [3]: 0.49 µM (≈ 0.249 µg/mL)

SMILES: CO[C@H]1/C=C/O[C@@]2(C)Oc3c(C)c(O)c4c(O)c(c(/C=N/N5CCN(C)CC5)c(O)c4c3C2=O)NC(=O)/C(C)=C\C=C\[C@H](C)[C@H](O)[C@@H](C)[C@@H](O)[C@@H](C)[C@H](OC(C)=O)[C@@H]1C [RMP, Rifampicin, reference compound]
- MIC [1]: 0.06 µM (≈ 0.0494 µg/mL)
- MIC [3]: 0.95 µM (≈ 0.782 µg/mL)

SMILES: CCOC(=O)CC(=O)NCC(=O)N1CCN(c2ccc(N3CC(Cn4cc(C)nn4)OC3=O)cc2F)CC1 (stereo not drawn) [PH-150]
- MIC [1]: 2.9 µM (≈ 1.54 µg/mL)
- MIC [2]: 2.9 µM (≈ 1.54 µg/mL)
- MIC [3]: 2.9 µM (≈ 1.54 µg/mL)

SMILES: NNC(=O)c1ccncc1 [INH, Isoniazid, reference compound]
- MIC [2]: 0.15 µM (≈ 0.0206 µg/mL)

SMILES: NCC(=O)N1CCN(c2ccc(N3CC(Cn4ccnn4)OC3=O)cc2F)CC1 (stereo not drawn) [PH-172]
- MIC [1]: 7.2 µM (≈ 2.9 µg/mL)
- MIC [2]: 3.6 µM (≈ 1.45 µg/mL)
- MIC [3]: 3.6 µM (≈ 1.45 µg/mL)

SMILES: CCOC(=O)CC(=O)NCC(=O)N1CCN(c2ccc(N3CC(Cn4ccnn4)OC3=O)cc2F)CC1 (stereo not drawn) [PH-169]
- MIC [1]: 1.45 to 2.9 µM (≈ 0.75 to 1.5 µg/mL)
- MIC [2]: 1.45 µM (≈ 0.75 µg/mL)
- MIC [3]: 1.45 µM (≈ 0.75 µg/mL)

SMILES: O=C(NCC(=O)N1CCN(c2ccc(N3CC(Cn4ccnn4)OC3=O)cc2F)CC1)c1cc([N+](=O)[O-])cc([N+](=O)[O-])c1 (stereo not drawn) [PH-193]
- MIC [1]: 0.42 µM (≈ 0.251 µg/mL)
- MIC [2]: 0.22 µM (≈ 0.131 µg/mL)
- MIC [3]: 0.052 µM (≈ 0.0311 µg/mL)

SMILES: Cc1cn(CC2CN(c3ccc(N4CCN(C(=O)CNC(=O)c5cccnc5)CC4)c(F)c3)C(=O)O2)nn1 (stereo not drawn) [PH-185]
- MIC [1]: 2.9 µM (≈ 1.52 µg/mL)
- MIC [2]: 5.7 µM (≈ 2.98 µg/mL)
- MIC [3]: 1.44 µM (≈ 0.752 µg/mL)

SMILES: Cc1cn(CC2CN(c3ccc(N4CCN(C(=O)CN)CC4)c(F)c3)C(=O)O2)nn1 (stereo not drawn) [PH-151]
- MIC [1]: 11.6 µM (≈ 4.84 µg/mL)
- MIC [2]: 5.8 µM (≈ 2.42 µg/mL)
- MIC [3]: 11.6 µM (≈ 4.84 µg/mL)

SMILES: O=C(NCC(=O)N1CCN(c2ccc(N3CC(Cn4ccnn4)OC3=O)cc2F)CC1)c1ccc([N+](=O)[O-])o1 (stereo not drawn) [PH-189]
- MIC [1]: 0.056 to 0.11 µM (≈ 0.0304 to 0.0597 µg/mL)
- MIC INH-R [1, 4]: 0.057 to 0.12 µM
- MIC [3]: 0.03 to 0.056 µM (≈ 0.0163 to 0.0304 µg/mL)
- MIC OFX-R [3]: 0.03 µM (≈ 0.0163 µg/mL)

SMILES: Cc1cn(CC2CN(c3ccc(N4CCN(C(=O)CNC(=O)c5ccc([N+](=O)[O-])o5)CC4)c(F)c3)C(=O)O2)nn1 (stereo not drawn) [PH-145]
- MIC [1]: 0.056 to 0.11 µM (≈ 0.0312 to 0.0612 µg/mL)
- MIC [2]: 0.11 to 0.46 µM (≈ 0.0612 to 0.256 µg/mL)
- MIC RMP-R [2, 4]: 0.11 µM (≈ 0.0612 µg/mL)
- MIC [3]: 0.03 to 0.056 µM (≈ 0.0167 to 0.0312 µg/mL)
- MIC OFX-R [3]: 0.056 µM (≈ 0.0312 µg/mL)
